Data on 19 molecules can be found in patent US20060046966A1, “Antipicornaviral compounds and compositions, their pharmaceutical uses, and materials for their synthesis” (Agouron Pharmaceuticals, Inc., priority 1998, published 2006).

Read-outs that look alike come from different tables or passages of the source.

Data set [1] has as its target T1, rhinovirus 3C protease from HRV serotype-14 (Human rhinovirus 14, UniProt P03303).
T1 construct: Recombinant rhinovirus 3C proteases; made in house
The data set can be described thus: Inhibition of rhinovirus 3C protease (FRET assay), serotype 14. To be noted: HRV serotype-14 3C protease, progress curves in enzyme start experiments; for kinact/KI: read-out: Protease Inhibition kobs/[I]. It counts as biochemical. The procedure:
Stock solutions (50 mM, in DMSO) of various compounds were prepared; dilutions were in the same solvent. Recombinant rhinovirus 3C proteases (see Birch et al., “Purification of recombinant human rhinovirus 14 3C protease expressed in Escherichia coli,” Protein Expr. Pur. 1995, 6(5), 609-618) from serotypes 14, 16, and 2 were prepared by the following standard chromatographic procedures: (1) ion exchange using Q Sepharose Fast Flow from Pharmacia; (2) affinity chromatography using Affi-Gel Blue from Biorad; and (3) sizing using Sephadex G-100 from Pharmacia. Each assay sample contained 2% DMSO, 50 mM tris pH 7.6, 1 mM EDTA, a test compound at the indicated concentration, approximately 1 μM substrate, and 50-100 nM protease. The kobs/I values were obtained from reactions initiated by addition of enzyme rather than substrate. RVP activity was measured in the fluorescence resonance energy transfer assay. The substrate was (N-terminal) DABCYL-(Gly-Arg-Ala-Val-Phe-Gln-Gly-Pro-Val-Gly)-EDANS. In the uncleaved peptide, the EDANS fluorescence was quenched by the proximal DABCYL moiety. When the peptide was cleaved, the quenching was relieved, and activity was measured as an increase in fluorescence signal. In Table 1, all data are for rhinovirus 3C protease from HRV serotype-14 (produced from the infectious cDNA clone constructed by Dr. Robert Rueckert, Institute for Molecular Virology, University of Wisconsin, Madison, Wis.). […] The data in the column designated kobs/[I] were measured from progress curves in enzyme start experiments.

In a further data set the test system is HRV-14. Nature of the data set: Antirhinoviral H1-HeLa cell culture assay, HRV-14. The data set is classed as cell-based, human rhinovirus. To be noted: HRV serotype-14, H1-HeLa cells. The procedure: In this cell protection assay, the ability of compounds to protect cells against HRV infection was measured by the XTT dye reduction method, which is described in Weislow et al., J. Natl. Cancer Inst. 1989, vol. 81, 577-586.
(§1) H1-HeLa cells were infected with HRV-14 at a multiplicity of infection (m.o.i.) of 0.13 (virus particles/cell) or mock-infected with medium only. Infected or mock-infected cells were resuspended at 8×10^5 cells per mL, and incubated with appropriate concentrations of the compounds to be tested. Two days later, XTT/PMS was added to test plates and the amount of formazan produced was quantified spectrophotometrically at 450/650 nm. The EC50 value was calculated as the concentration of compound that increased the percentage of formazan production in compound-treated, virus-infected cells to 50% of that produced by compound-free, mock-infected cells. The 50% cytotoxic dose (CC50) was calculated as the concentration of compound that decreased the percentage of formazan produced in compound-treated, mock-infected cells to 50% of that produced by compound-free, mock-infected cells. The therapeutic index (TI) was calculated by dividing the CC50 value by the EC50 value.
(§2) All strains of human rhinovirus (HRV) for use in this assay were purchased from American Type Culture Collection (ATCC), except for HRV serotype-14 (produced from the infectious cDNA clone constructed by Dr. Robert Rueckert, Institute for Molecular Virology, University of Wisconsin, Madison, Wis.). HRV stocks were propagated and viral assays were performed in H1-HeLa cells (ATCC). Cells were grown in minimal essential medium with 10% fetal bovine serum, available from Life Technologies (Gaithersburg, Md.).
The compounds were tested against control compounds WIN 51711, WIN 52084, and WIN 54954 (obtained from Sterling-Winthrop Pharmaceuticals), Pirodavir (obtained from Janssen Pharmaceuticals), and Pleconaril (prepared according to the method described in Diana et al., J. Med. Chem 1995, vol. 38, 1355). Antiviral data obtained for the test compounds are shown in Tables 1 and 3, where all data are for HRV serotype-14 unless otherwise noted in parentheses.

Data set [2] is described as follows: Cytotoxicity in mock-infected H1-HeLa cells (antirhinoviral assay, XTT). Particulars: human, 50% cytotoxic dose, two days. It counts as cell-based. The procedure: as §1, §2
Background: Formazan colour is commonly taken as a measure of viable cells.

Where [3] appears, read: Rhinovirus B, HRV14, H1-HeLa, Table 1, XTT dye reduction, read-out: Cell Protection EC50.
[4] abbreviates: Rhinovirus B, HRV14, H1-HeLa, Table 3, XTT, read-out: EC50.

T1 sequence (P03303 1538-1719): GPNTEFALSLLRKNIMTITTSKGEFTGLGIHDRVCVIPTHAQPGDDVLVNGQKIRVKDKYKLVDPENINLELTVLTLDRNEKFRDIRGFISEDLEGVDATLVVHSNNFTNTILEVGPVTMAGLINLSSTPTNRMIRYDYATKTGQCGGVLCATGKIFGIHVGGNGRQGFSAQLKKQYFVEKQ

In the case of `CC(C)C[C@H](NC(=O)OCc1ccccc1)C(=O)N[C@@H](Cc1ccccc1)C(=O)N[C@H](/C=C/c1ccno1)CCC(N)=O` [Comparison Compound #1, 5-(3′-(Cbz-L-Leu-L-Phe-L-Gln)-E-Propene)-isoxazole, reference compound], the kinact/KI in data set [1] stood at 573 M⁻¹ s⁻¹. Besides, the EC50 in the data set on HRV-14 (setting [3]) and in the data set on HRV-14 (setting [4]) was > 320000 nM in each case.

Take `CCOC(=O)/C=C/[C@H](CCC(N)=O)NC(=O)[C@H](Cc1ccc(C)cc1)NC(=O)[C@@H](NC(=O)c1cc(C)on1)C(C)(C)C` [Compound A-3, Ethyl-3-((5′-Methylisoxazole-3′-carbonyl)-L-α-(t-Butyl-Gly)-L-(4-Me-Phe)-L-Gln)-E-Propenoate]: the kinact/KI in data set [1] turned out to be 310000 M⁻¹ s⁻¹. The EC50 with HRV-14 (setting [3]) and in the data set on HRV-14 (setting [4]) was 50 nM in each case.

Consider `CCOC(=O)/C=C/[C@H](CCC(N)=O)NC(=O)[C@H](Cc1ccc(F)cc1)NC(=O)[C@@H](NC(=O)c1cc(C)on1)C(C)(C)C` [Compound A-4, Ethyl-3-((5′-Methylisoxazole-3′-carbonyl)-L-α-(t-Butyl-Gly)-L-(4-F-Phe)-L-Gln)-E-Provenoate], for which the kinact/KI in data set [1] stood at 270000 M⁻¹ s⁻¹. The EC50 with HRV-14 (setting [3]) and in the data set on HRV-14 (setting [4]) was 100 nM in each case.

Consider `CCOC(=O)/C=C/[C@H](CCC(N)=O)NC(=O)[C@H](Cc1ccc(F)cc1)NC(=O)[C@@H](NC(=O)c1cc(C)on1)C(C)C` [Compound A-6, Ethyl-3-[(5′-Methylisoxazole-3′-carbonyl)-L-Val-L-(4-F-Phe)-L-Gln]-E-Propenoate], for which the kinact/KI in data set [1] was 248000 M⁻¹ s⁻¹. Also, the EC50 with HRV-14 (setting [3]) and in the data set with HRV-14 (setting [4]) was 420 nM each time.

As to `CCOC(=O)/C=C/[C@H](C[C@@H]1CCCNC1=O)NC(=O)[C@H](Cc1ccc(F)cc1)NC(=O)[C@@H](NC(=O)c1cc(C)on1)C(C)C` [Compound A-8, Ethyl-3-[(5′-Methylisoxazole-3′-carbonyl)-L-Val-L-(4-F-Phe)-L-((S)-Piper-Ala)}-E-Propenoate], the kinact/KI in data set [1] was 900000 M⁻¹ s⁻¹.

Take `CCOC(=O)/C=C/[C@H](CCC(N)=O)NC(=O)[C@H](Cc1ccc(F)cc1)N(C)C(=O)[C@H](Cc1c[nH]cn1)NC(=O)c1cc(C)on1` [Compound A-9, Ethyl-3-{(5′-Methylisoxazole-3′-carbonyl)-L-His-NCH3-L-(4-F-Phe)-L-Gln}-E-Propenoate]: the kinact/KI in data set [1] stood at 66000 M⁻¹ s⁻¹. Further, the 50% effective concentration (EC50) in the data set with HRV-14 (setting [3]) and with HRV-14 (setting [4]) was 1800 nM throughout.

As for `CCOC(=O)/C=C/[C@H](CCC(N)=O)NC(=O)[C@H](Cc1ccc(F)cc1)N(C)C(=O)[C@H](Cc1ccc2ccccc2c1)NC(=O)c1cc(C)on1` [Compound A-11, Ethyl-3-{(5′-Methylisoxazole-3′-carbonyl)-L-(2-Naphth)-NCH3-L-(4-F-Phe)-L-Gln}-E-Propenoate], in data set [1], the kinact/KI stood at 108000 M⁻¹ s⁻¹. Moreover, the EC50 in the data set with HRV-14 (setting [3]) and in the data set on HRV-14 (setting [4]) was 30 nM each time.

For the molecule `CCOC(=O)/C=C/[C@H](CCC(N)=O)NC(=O)[C@H](Cc1ccc(F)cc1)N(C)C(=O)[C@H](CC(C)C)NC(=O)c1cc(C)on1` [Compound A-12, Ethyl-3-{(5′-Methylisoxazole-3′-carbonyl)-L-Leu-NCH3-L-(4-F-Phe)-L-Gln}-E-Propenoate], in data set [1], the kinact/KI stood at 59300 M⁻¹ s⁻¹. For the same molecule, the EC50 in the data set on HRV-14 (setting [3]) and with HRV-14 (setting [4]) was 400 nM throughout.

`CCOC(=O)/C=C/[C@H](CCC(N)=O)NC(=O)[C@H](Cc1ccc(F)cc1)N(C)C(=O)[C@H](Cc1cccc2ccccc12)NC(=O)c1cc(C)on1` [Compound A-13, Ethyl-3-{(5′-Methylisoxazole-3′-carbonyl)-L-(1-Naphth)-NCH3-L-(4-F-Phe)-L-Gln}-E-Propenoate]: in data set [1], the kinact/KI was found to be 95800 M⁻¹ s⁻¹. In addition, the EC50 in the data set with HRV-14 (setting [3]) and in the data set with HRV-14 (setting [4]) was 200 nM each time.

In the case of `CCOC(=O)/C=C/[C@H](CCC(N)=O)NC(=O)[C@H](Cc1ccccc1)NC(=O)[C@@H](NC(=O)c1cccs1)C(C)(C)C` [Compound A-14], the kinact/KI in data set [1] is 54500 M⁻¹ s⁻¹. The half-maximal effective concentration (EC50) in the data set with HRV-14 (setting [3]) and in the data set on HRV-14 (setting [4]) was 480 nM each time. For the same molecule, the CC50 at 2 days in data set [2] is > 100000 nM.

Regarding `CCOC(=O)/C=C/[C@H](CCC(N)=O)NC(=O)[C@H](Cc1ccccc1)NC(=O)[C@H](CC(C)C)NC(=O)c1cc(C)[nH]n1` [Compound A-22], the kinact/KI in data set [1] was found to be 2400 M⁻¹ s⁻¹.

Consider `CCOC(=O)/C=C/[C@H](CCC(N)=O)NC(=O)[C@H](Cc1ccccc1)NC(=O)[C@H](CC(C)C)NC(=O)c1cc(C)cs1` [Compound A-23], for which the kinact/KI in data set [1] was 26000 M⁻¹ s⁻¹.

Regarding `CCOC(=O)/C=C/[C@H](C[C@@H]1CCNC1=O)NC(=O)[C@H](Cc1ccccc1)NC(=O)[C@@H](NC(=O)OCc1ccccc1)C(C)C` [Compound A-25, Ethyl-3-{Cbz-L-Val-L-Phe-L-((S)-Pyrrol-Ala)}-E-Propenoate], the kinact/KI in data set [1] was 500000 M⁻¹ s⁻¹. Further, the EC50 in the data set with HRV-14 (setting [3]) and with HRV-14 (setting [4]) was 30 nM each time.

Consider `CCOC(=O)/C=C/[C@H](C[C@@H]1CCCNC1=O)NC(=O)[C@H](Cc1ccccc1)NC(=O)[C@H](CC(C)C)NC(=O)OCc1ccccc1` [Compound A-26, Ethyl-3-{Cbz-L-Leu-L-Phe-L-((S)-Piper-Ala)}-E-Provenoate], for which, in data set [1], the kinact/KI worked out at 239000 M⁻¹ s⁻¹. In addition, the EC50 in the data set on HRV-14 (setting [3]) and in the data set with HRV-14 (setting [4]) was 30 nM in each case.

`CCOC(=O)/C=C/[C@H](C[C@H]1CCNC1=O)NC(=O)[C@H](Cc1ccccc1)NC(=O)[C@H](CC(C)C)NC(=O)OCc1ccccc1` [Compound A-27, Ethyl-3-{Cbz-L-Leu-L-Phe-L-((R)-Pyrrol-Ala)}-E-Propenoate]: the kinact/KI in data set [1] came out at 18000 M⁻¹ s⁻¹. In addition, the concentration for a half-maximal effect (EC50) with HRV-14 (setting [3]) and in the data set on HRV-14 (setting [4]) was 1600 nM in each case.

`Cc1cc(C(=O)N[C@H](C(=O)C[C@@H](Cc2ccc(F)cc2)C(=O)N[C@H](/C=C2\CCOC2=O)C[C@@H]2CCNC2=O)C(C)C)no1` [Compound B-3, 2-{(5′-Methylisoxazole-3′-carbonyl)-L-ValΨ(COCH2)-L-(4-F-Phe)-L-((S)-Pyrrol-Ala)}-E-(α-Vinyl-γ-Butyrolactone)]: the kinact/KI in data set [1] is 465000 M⁻¹ s⁻¹. Moreover, the EC50 with HRV-14 (setting [3]) and in the data set on HRV-14 (setting [4]) was 180 nM throughout.

With `CCOC(=O)/C=C/[C@H](C[C@@H]1CCCNC1=O)NC(=O)[C@@H](CC(=O)[C@@H](NC(=O)c1cc(C)on1)C(C)C)Cc1ccc(F)cc1` [Compound B-4, Ethyl-3-[(5′-Methylisoxazole-3′-carbonyl)-L-ValΨ(COCH2)-L-(4-F-Phe)-L-((S)-Piper-Ala)}-E-Propenoate], the kinact/KI in data set [1] was determined as 500000 M⁻¹ s⁻¹. The EC50 in the data set with HRV-14 (setting [3]) and in the data set on HRV-14 (setting [4]) was < 30 nM in each case.

`CCOC(=O)/C=C/[C@H](CCC(N)=O)NC(=O)[C@H](Cc1ccc(F)cc1)OC(=O)[C@@H](NC(=O)c1cc(C)on1)C(C)C` [Compound C-1, Ethyl-3-{(5′-Methylisoxazole-3′-carbonyl)-L-Val-O-L-(4-F-Phe)-L-Gln}-E-Propenoate]: the kinact/KI in data set [1] is 68400 M⁻¹ s⁻¹. The EC50 with HRV-14 (setting [3]) and in the data set on HRV-14 (setting [4]) was 100 nM in each case.

With “Ethyl-3-((5′-Methylisoxazole-3′-carbonyl)-L-Leu-NCH3-L-Phe-L-Gln)-E-Provenoate [Compound A-10]”, in data set [1], the “Protease Inhibition kobs/[I]” value is 108,000 M^−1sec^−1. The EC50 with HRV-14 (Table 1, XTT dye reduction, read-out: Cell Protection EC50) amounted to 140 nM; in the data set with HRV-14 (Table 3, XTT, read-out: EC50) it was 140 nM.

The term EC50 denotes the concentration at which the effect is half-maximal. Broadly, the CC50 is the concentration that lowers cell viability or growth by half.
